Data reported in patent US20260207585A1, “METHODS AND COMPOSITIONS FOR THE TREATMENT OF PARKINSON'S DISEASE, HUNTINGTON'S DISEASE, AMYOTROPHIC LATERAL SCLEROSIS, AND LEARNING DISORDERS” (Cedars-Sinai Medical Center, priority 2022, published 2026).
Like-named read-outs stand apart in the source and are kept apart here.

Legend:
[1] = molecular target: DOT1L (Homo sapiens, UniProt Q8TEK3); assay: Methyltransferase inhibition panel: DOT1L; assay type: biochemical
Method: (§1) The ability of ETP69 to inhibit methyltransferases was tested.

[2] = molecular target: EZH2 Complex (Homo sapiens, UniProt Q15910); assay: Methyltransferase inhibition panel: EZH2 Complex; assay type: biochemical; details: NT1721 20 μM; substrate Core Histone 0.05 mg/mL
Method: as §1

[3] = molecular target: PRMT1 (Homo sapiens, UniProt Q99873); assay: Methyltransferase inhibition panel: PRMT1; assay type: biochemical
Sequence of PRMT1 (Q99873 whole entry): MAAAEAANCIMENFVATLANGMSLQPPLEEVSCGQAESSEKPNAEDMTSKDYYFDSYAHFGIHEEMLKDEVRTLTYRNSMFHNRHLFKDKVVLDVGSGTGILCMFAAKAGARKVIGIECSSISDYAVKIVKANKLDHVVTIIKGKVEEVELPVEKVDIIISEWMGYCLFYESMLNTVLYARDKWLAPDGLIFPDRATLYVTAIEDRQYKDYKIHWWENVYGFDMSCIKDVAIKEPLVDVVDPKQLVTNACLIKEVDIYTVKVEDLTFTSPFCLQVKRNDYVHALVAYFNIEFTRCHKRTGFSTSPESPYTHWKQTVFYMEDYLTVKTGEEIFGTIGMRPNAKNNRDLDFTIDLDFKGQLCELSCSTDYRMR
Method: as §1

[4] = molecular target: PRMT6 (Homo sapiens, UniProt Q96LA8); assay: Methyltransferase inhibition panel: PRMT6; assay type: biochemical; details: NT1721 20 μM, substrate GST-GAR 5 μM
Sequence of PRMT6 (Q96LA8 whole entry): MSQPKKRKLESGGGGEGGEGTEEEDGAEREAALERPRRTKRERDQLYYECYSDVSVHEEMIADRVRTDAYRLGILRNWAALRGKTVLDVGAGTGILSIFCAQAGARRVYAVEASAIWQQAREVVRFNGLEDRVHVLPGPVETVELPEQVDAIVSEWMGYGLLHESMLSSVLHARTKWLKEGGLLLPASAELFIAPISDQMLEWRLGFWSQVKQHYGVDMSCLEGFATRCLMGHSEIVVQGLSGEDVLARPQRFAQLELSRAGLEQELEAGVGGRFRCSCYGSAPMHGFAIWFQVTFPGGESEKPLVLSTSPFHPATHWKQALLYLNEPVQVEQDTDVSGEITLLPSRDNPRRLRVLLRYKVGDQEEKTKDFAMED
Method: as §1

[5] = molecular target: SMYD2 (Homo sapiens, UniProt Q9NRG4); assay: Methyltransferase inhibition panel: SMYD2; assay type: biochemical
Sequence of SMYD2 (Q9NRG4 whole entry): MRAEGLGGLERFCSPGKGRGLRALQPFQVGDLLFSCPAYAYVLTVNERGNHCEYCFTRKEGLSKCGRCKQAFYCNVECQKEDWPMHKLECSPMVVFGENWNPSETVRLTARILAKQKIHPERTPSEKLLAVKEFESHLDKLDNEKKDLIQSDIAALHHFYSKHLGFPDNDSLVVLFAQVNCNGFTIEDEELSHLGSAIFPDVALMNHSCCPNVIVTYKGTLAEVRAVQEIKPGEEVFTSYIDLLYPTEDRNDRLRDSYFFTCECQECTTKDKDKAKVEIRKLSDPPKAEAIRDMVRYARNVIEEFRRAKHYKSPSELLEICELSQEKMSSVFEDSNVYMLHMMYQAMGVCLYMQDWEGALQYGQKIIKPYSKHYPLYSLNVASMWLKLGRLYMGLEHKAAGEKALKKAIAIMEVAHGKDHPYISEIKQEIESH
Method: as §1

[6] = molecular target: T1, SMYD3 (Homo sapiens, UniProt Q9H7B4); assay: Methyltransferase inhibition panel: SMYD3; assay type: biochemical
T1 sequence (Q9H7B4 1-428): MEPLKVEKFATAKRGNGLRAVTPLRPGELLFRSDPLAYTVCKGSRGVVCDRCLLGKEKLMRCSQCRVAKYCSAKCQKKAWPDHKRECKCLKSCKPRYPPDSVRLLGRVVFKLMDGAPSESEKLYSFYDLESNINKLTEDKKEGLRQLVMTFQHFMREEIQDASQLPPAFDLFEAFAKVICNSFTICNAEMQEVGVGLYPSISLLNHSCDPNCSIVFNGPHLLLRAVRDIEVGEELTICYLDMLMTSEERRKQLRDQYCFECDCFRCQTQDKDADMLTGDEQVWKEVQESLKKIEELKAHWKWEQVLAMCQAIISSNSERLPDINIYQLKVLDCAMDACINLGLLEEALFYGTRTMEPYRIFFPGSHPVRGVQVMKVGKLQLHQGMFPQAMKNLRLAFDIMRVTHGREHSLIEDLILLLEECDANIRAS
Method: as §1

[7] = tested on: dendritic spines; assay: Golgi-Cox staining of brain, dendritic spine quantification; assay type: in vivo, mice
Source text: The brain of 18-month old mice was stained with the Golgi-Cox method to detect the cytoarchitecture and morphology of neurons. FIG. 1A depicts representative images of the cingulate cortex (cc) of mice administered DMSO or ETP69. FIG. 1B depicts a representative hippocampus. FIG. 1C depicts a representative neuron from a DMSO treated and ETP69 treated hippocampus. FIG. 1D is a schematic of the quantification of neuronal spines.
The brains were stained with the Golgi-Cox method to detect the cytoarchitecture and morphology of neurons. Representative images are shown of mice treated with DMSO (FIG. 10A-10C) and ETP69 (FIG. 10D-10F). The number of dendritic spines are quantified. […] Further, ETP69 administration reduced epigenetic H3K9me3 repression mark in cell-specific manners. H3K9 expression was reduced in neurons (FIGS. 11A-11B), astrocytes (FIGS. 11C-11D), and microglia macrophages (FIGS. 11E-11F).
Loss of synapses and dendritic spine abnormalities are associated with cognitive decline. To analyze these features in old mice administered ETP69, Golgi-Cox neuronal staining and synaptic marker staining was performed in cerebral cortices and hippocampi. Dendritic spines were classified as thin (filopodia-like and long-thin), stubby, or mushroom spines according to their size and shape, and quantified the spine density from high-magnification photographs.

[8] = tested on: wildtype and AD model (APP/PS1-transgenic) mice; assay: Y-Maze test; assay type: in vivo
Method: The effects of single and repeated ETP69 injections in mice were tested. The experimental timeline is depicted in FIG. 5. Three parallel injection conditions were tested: a single ETP69 condition, a boosted ETP69 injection, and repeated ETP69 injections. The single injection mice received one injection of ETP69 or DMSO at Day 0. The mice that received a boosted injection received one injection of ETP69 or DMSO at day 0 and one injection at day 9. The mice that received repeated injections received 11 injections of ETP69 or DMSO at day 0 or day 9. Both wildtype and AD model (APP/PS1-transgenic) mice were tested.
Treatment with ETP69 restored CNS-related locomotor, visual, cognitive functions (FIGS. 6A-611). First, the effects of ETP69 on cognitive and visual protection was tested using the Y-Maze test.

[9] = tested on: PSD95; assay: PSD95 irradiance in brain; set-up: species or system mice; details: mouse, in vivo
[10] = tested on: soluble fraction of brain homogenates; assay: Mass spectrometry proteomics of brain homogenates with IPA; assay type: in vivo, mice
Method: The results included levodopa (L-dopa), a naturally occurring product that is also a drug for the management of Parkinson's motor symptoms.
Mass spectrometry (MS) analysis on the soluble fraction of brain homogenates extracted from the […] WT and neurodegenerative (AD) mice cohort was performed (DMSO-treated WT mice: n=8; ETP69-treated WT mice: n=7; DMSO-treated AD^+ mice: n=6; ETP69-treated AD^+ n=6).
The effects of ETP69 on the molecular pathways related to neuroprotection and cognitive function was assessed.

[11] = Delivery to the brain; details: in vivo
[12] = read-out: Enzyme % Activity (relative to DMSO controls) Data 1
[13] = read-out: Enzyme % Activity (relative to DMSO controls) Data 2
[14] = 18-month old mice, cingulate cortex (cc) and hippocampus, vs DMSO
[15] = old (18-month-old) mice, 10 mg/kg i.p.

Sequence of DOT1L (Q8TEK3 whole entry): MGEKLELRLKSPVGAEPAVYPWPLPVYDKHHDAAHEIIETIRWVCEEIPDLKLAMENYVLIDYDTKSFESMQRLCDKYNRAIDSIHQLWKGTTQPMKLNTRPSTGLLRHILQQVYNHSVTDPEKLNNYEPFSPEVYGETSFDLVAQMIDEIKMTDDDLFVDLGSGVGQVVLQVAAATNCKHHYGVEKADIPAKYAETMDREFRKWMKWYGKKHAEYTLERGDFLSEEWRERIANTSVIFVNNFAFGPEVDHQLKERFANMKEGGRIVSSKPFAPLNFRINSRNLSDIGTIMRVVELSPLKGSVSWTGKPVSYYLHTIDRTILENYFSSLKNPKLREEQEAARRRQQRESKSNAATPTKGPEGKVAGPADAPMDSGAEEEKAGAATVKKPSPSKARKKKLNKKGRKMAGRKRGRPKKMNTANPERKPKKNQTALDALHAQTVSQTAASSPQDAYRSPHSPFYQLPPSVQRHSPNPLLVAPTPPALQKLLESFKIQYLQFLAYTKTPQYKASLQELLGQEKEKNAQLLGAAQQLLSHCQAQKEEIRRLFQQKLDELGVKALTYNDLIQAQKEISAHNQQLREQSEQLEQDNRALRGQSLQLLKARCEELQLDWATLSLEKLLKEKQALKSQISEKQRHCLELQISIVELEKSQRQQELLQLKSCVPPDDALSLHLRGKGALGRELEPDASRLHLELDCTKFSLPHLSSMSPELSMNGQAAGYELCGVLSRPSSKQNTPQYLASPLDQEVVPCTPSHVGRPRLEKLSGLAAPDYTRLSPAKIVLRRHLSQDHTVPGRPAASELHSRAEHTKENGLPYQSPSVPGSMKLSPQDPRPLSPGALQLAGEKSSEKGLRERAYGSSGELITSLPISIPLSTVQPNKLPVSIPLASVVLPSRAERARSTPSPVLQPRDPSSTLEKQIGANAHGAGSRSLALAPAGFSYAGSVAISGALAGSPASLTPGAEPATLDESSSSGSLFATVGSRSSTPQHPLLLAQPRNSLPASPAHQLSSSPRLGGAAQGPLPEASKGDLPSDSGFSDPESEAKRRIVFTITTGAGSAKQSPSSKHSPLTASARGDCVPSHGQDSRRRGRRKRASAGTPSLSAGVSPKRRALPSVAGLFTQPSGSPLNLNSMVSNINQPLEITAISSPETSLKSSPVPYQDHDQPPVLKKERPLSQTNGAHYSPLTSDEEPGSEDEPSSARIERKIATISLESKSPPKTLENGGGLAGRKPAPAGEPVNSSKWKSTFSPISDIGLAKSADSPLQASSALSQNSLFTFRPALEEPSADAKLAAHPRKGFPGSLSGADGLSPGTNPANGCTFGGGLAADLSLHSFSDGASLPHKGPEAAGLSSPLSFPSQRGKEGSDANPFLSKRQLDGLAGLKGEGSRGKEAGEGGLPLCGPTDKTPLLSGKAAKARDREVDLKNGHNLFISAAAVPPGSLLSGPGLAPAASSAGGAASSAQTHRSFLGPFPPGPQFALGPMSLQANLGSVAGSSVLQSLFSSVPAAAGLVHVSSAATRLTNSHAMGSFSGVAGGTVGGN

CN1C(=O)[C@@]23C[C@](C)(C#N)[C@H](c4ccc5c(c4)OCO5)N2C(=O)[C@]1(C)SS3 (racemic) [ETP69, Rac-(3S,6S,7S,8aS)-6-(benzo[d][1,3]dioxol-5-yl)-2,3,7-trimethyl-1,4-dioxohexahydro-6H-3,8a-epidithiopyrrolo[1,2-a]pyrazine-7-carbonitrile]
remaining activity at 20 µM [1, 12]: 104%
remaining activity at 20 µM [1, 13]: 98.5%
Enzyme % Activity (relative to DMSO controls) Data 1 [2]: 98.37%
Enzyme % Activity (relative to DMSO controls) Data 2 [2]: 97.85%
remaining activity at 20 µM [3, 12]: 114%
remaining activity at 20 µM [3, 13]: 115%
remaining activity at 20 µM [4, 12]: 128%
remaining activity at 20 µM [4, 13]: 129%
remaining activity at 20 µM [5, 12]: 4.23%
remaining activity at 20 µM [5, 13]: 4.97%
inhibition relative to DMSO controls ([5]; summary of Table 1): at least 7500
remaining activity at 20 µM [6, 12]: 8.99%
remaining activity at 20 µM [6, 13]: 7.71%
inhibition relative to DMSO controls ([6]; summary of Table 1): at least 7500
dendritic spines [7, 14]: increase
thin spines [7, 14]: increase
number of dendritic spines ([7]; Example 4 mice, cingulate cortex and hippocampus, vs DMSO): significantly increased
mushroom-to-total spine ratio [7, 15]: lower
thin-to-total spine ratio [7, 15]: higher
increase in the number of dendritic spines ([7]; old (18-month-old) wildtype and neurodegenerative mice, hippocampus and cerebral cortex, 10 mg/kg i.p., vs DMSO control): 1.2 fold
percent alternation ([8]; AD+ mice vs AD+ DMSO): significant increase
number of total entries (locomotor activity) ([8]; wildtype and AD+ mice): decreased
expression of PSD95 irradiance [9]: increased
pathways of learning, cognition, quantity of neurons, dendritic growth and branching (IPA) ([10]; AD+ mice): significantly activated
Mapt protein upregulation ([10]; AD+ mice, p=0.0188): 2.4 fold
Gfra2 protein ([10]; ETP69-treated mice, p=0.0056): significantly increased
Lrrn4 protein upregulation ([10]; ETP69-treated versus DMSO-control AD+ mice, p=0.015): 1.73 fold
brain neurotrophic factors (NTFs) expression including BDNF, VGF and levodopa ([10]; proteome signatures): induced
delivery to the brain [11]: good delivery to the brain
